Legend:
[1] = system: 2xF30-Broccoli RNA (Bi), transcript of T7 promoter-Broccoli template without operator (RNA, aptamer) UUGCCAUGUGUAUGUGGGAGACGGUCGGGUCCAGAUAUUCGUAUCUGUCGAGUAGAGUGUGGGCUCCCACAUACUCUGAUGAUCCUUCGGGAUCAUUCAUGGCAA; assay: fluorescence turn-on during in vitro transcription; conditions: 25 mM NaCl, 8 mM MgCl2; 40 mM Tris-HCl pH 8.0, 2 mM spermidine, 5 mM DTT, 34 °C, 20 μM dye; NTPs, T7 RNAP present
[2] = system: Broccoli run-off transcript of the 251 bp T7 promoter-O1-Broccoli template (RNA, aptamer) GGCAAUUGUGAGCGGAUAACAAUUCUAGAUUGCCAUGUGUAUGUGGGAGACGGUCGGGUCCAGAUAUUCGUAUCUGUCGAGUAGAGUGUGGGCUCCCACAUACUCUGAUGAUCCUUCGGGAUCAUUCAUGGCAAGGAUCCG; assay: fluorescence turn-on during in vitro transcription; conditions: 25 mM NaCl, 8 mM MgCl2; 40 mM Tris-HCl pH 8.0, 2 mM spermidine, 5 mM DTT, 34 °C, 20 μM dye; NTPs, T7 RNAP present

SMILES: CC1=N/C(=C\c2cc(F)c(O)c(F)c2)C(=O)N1CC(F)(F)F
- binding [1]: yes
- binding [2]: yes
